Experimental data from patent US12180523B2, “Southern green stink bug pheromone synthesis enzymes and uses thereof” (VIRGINIA TECH INTELLECTUAL PROPERTIES, INC., priority 2018, dated 2024).
Each block holds one compound with its values, some of them ahead of it.

How the values were obtained:
[1] = target: T1, recombinant NvIDS1 (NvTPS) protein (Nezara viridula, UniProt A0A386JV86); assay: TPS activity assay of purified recombinant NvTPS, products by GC-MS; type: biochemical, N. viridula; settings: 50 μM allylic substrate, 30° C., 1 h
T1 construct: Full-length NvTPS (NvIDS1) cDNA was cloned into the pEXP5-NT/TOPO (Invitrogen) expression vector; His tag (N-terminal histidine fusion tag from pEXP5-NT/TOPO) (N); made in house; host or cells: E. coli BL21(DE3)pLysS
T1 sequence (A0A386JV86 1-378): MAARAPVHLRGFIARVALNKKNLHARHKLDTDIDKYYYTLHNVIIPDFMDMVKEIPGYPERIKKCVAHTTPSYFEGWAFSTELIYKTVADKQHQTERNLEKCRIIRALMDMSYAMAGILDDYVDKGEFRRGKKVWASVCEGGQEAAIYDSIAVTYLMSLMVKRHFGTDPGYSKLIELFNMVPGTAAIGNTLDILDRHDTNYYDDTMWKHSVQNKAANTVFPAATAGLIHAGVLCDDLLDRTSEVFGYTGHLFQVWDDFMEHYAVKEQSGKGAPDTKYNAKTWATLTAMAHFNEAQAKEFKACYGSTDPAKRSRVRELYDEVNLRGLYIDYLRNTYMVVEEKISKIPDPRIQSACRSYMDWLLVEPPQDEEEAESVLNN
Protocol: Heterologous Expression of Recombinant NvTPS.
TPS activity of purified, recombinant NvTPS protein was determined in assay buffer (see above) with 1 mM DTT and 50 μM allylic substrate [(E,E)-, (Z,E)- or (Z,Z)-FPP] in a total volume of 100 μl and with a100 μl hexane overlay. Upon incubation at 30° C. for 1 h, assays were stopped on ice and compounds extracted by mixing using a vortex at maximum speed for 15 s. Phases were separated by centrifuging at 4000×g for 10 min and the hexane phase was removed and dried over MgSO4. One μL of the hexane extract was analyzed by GC-MS.
Gas Chromatography-Mass Spectrometry Analysis and Determination of Absolute Configuration of NvTPS Products. GC-MS analysis of hexane extracts from assays with crude protein lysates or NvTPS recombinant protein was performed using split injection (5:1 ratio) at an injection temperature of 240° C. Compounds were separated on a GC-2010 gas chromatograph (Shimadzu, Kyoto, Japan) with a 30 m×0.25 mm i.d.×0.25 μm film Zebron ZB-XLB column (Phenomenex, Torrance, CA) coupled to a QP2010S mass spectrometer (Shimadzu). Separation steps were as follows: initial 2 min hold at 40° C., followed by a 5° C./min ramp to 220° C., then a 70° C./min ramp to 240° C. followed by a 2 min hold time at 240° C. Mass spectrometry was performed with a 240° C. ion source temperature, 280° C. interface temperature, electron ionization (El) potential of 70 eV, and scan range of 50 to 400 amu. Helium was used as a carrier gas at 1.9 ml/min.

[2] = test system: crude protein extracts from tissue associated with the ventral sternites of N. viridula; assay: Terpene synthase activity in crude protein extracts of abdominal cuticle tissue; type: biochemical; settings: 50 μM (E,E)-FPP, 12 h, 30° C.
Protocol: Crude Protein Extracts of N. viridula. Abdominal cuticles from one mature (14-15 days post molt) adult male and female N. viridula were used for crude protein assays. Insects were fixed with hexane vapor in a screw top jar and dissected in phosphate buffered saline (PBS) (137 mM NaCl, 8.1 mM Na2HPO4, 1.5 mM NaH2PO4, 2.7 mM KCl, pH 7.2). Head, thorax and abdominal soft tissues were removed except for epithelial cells lining the cuticle. Abdominal cuticles were then frozen in liquid nitrogen, pulverized with a mortar and pestle, and suspended in assay buffer (25 mM HEPES, 5 mM MgCl2, 10% glycerol, 1 mM DTT, pH 7). Protein concentrations were determined with a Bradford Assay (Bio-Rad, Hercules, CA) according to the manufacturer's protocol resulting in a protein concentration of 1.2 μg/μl and 0.8 μg/μl for female and male tissue, respectively.
TPS Activity Assay. To determine terpene synthase activity in crude protein extracts of male and female abdominal cuticle tissue, 50 μM (E,E)-FPP was added to protein extracts in assay buffer (see above) containing 50 µg protein at a final volume of 200 μl and with a 200 μl hexane overlay to collect volatiles. Following incubation for 12 h at 30° C., enzyme products were extracted by mixing for 15 s using a vortex and phases were separated by centrifuging at 4000×g for 10 min. One μl of the hexane extract was analyzed by GC-MS. […]

[3] = test system: crude protein extract from whole male and female bugs; assay: Enzyme activity in crude protein extract from whole bugs; type: biochemical, N. viridula; settings: supernatant of homogenized male and female bugs incubated with (E,E)-FPP
Protocol: Enzyme Activity in Crude Protein Assay. Enzyme activity was measured in crude protein extract from whole male and female bugs to determine possible products from enzymes that accept (E,E)-FPP. The supernatant from homogenized bugs was incubated with the substrate and analyzed products extracted by hexane using GC-MS. […] Also, several sesquiterpenes were found in low abundance that were not found in assays of partially purified NvTPS.

NvTPS = target: T2, NvTPS (Nezara viridula, UniProt A0A386JV86); assay: Kinetic analysis of NvTPS with [1-3H]-(E,E)-FPP; type: biochemical, N. viridula; settings: (E,E)-FPP as the substrate
T2 construct: Full-length NvTPS (NvIDS1) cDNA was cloned into the pEXP5-NT/TOPO (Invitrogen) expression vector; His tag (N-terminal histidine fusion tag from pEXP5-NT/TOPO) (N); made in house; host or cells: E. coli BL21(DE3)pLysS
T2 sequence (A0A386JV86 1-378): T1 sequence (A0A386JV86 1-378)
Protocol: To determine the apparent Km value of NvTPS for (E,E)-FPP, […] of recombinant protein was incubated with increasing concentrations of [1-3H]-(E,E)-FPP (64 ρCi mmol-1) in a total volume of […]. Assays were incubated at 30° C. for 5 min prior to extraction of the enzyme product with 250 μl hexane. Assays were performed in triplicate. Quantification of the radioactive product was as described by Tholl et al. (2005. Plant. J. 42:757-771). The Km value was calculated by rectangular hyperbolic regression analysis using Hyperbolic Regression Analysis software (HYPER 1.01) (J. S. Easterby, University of Liverpool).

[4] = target: recombinant NvIDS2 (NvFPPS) (Nezara viridula, UniProt A0A386JVA3); settings: 50 μM IPP and 50 μM DMAPP, 30° C., 2 h, LC-MS
Sequence of recombinant NvIDS2 (NvFPPS) (A0A386JVA3 whole entry): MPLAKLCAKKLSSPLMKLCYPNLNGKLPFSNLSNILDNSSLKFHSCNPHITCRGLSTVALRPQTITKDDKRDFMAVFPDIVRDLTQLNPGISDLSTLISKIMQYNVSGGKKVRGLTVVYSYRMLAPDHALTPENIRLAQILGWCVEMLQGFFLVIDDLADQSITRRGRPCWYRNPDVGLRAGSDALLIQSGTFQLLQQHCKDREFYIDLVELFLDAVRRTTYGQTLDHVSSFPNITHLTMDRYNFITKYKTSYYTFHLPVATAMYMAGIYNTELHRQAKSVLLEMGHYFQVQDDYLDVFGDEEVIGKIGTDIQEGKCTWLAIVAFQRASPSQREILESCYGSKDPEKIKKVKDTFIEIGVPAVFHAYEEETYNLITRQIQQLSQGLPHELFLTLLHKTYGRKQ
Protocol: In preparation for enzyme assays, a buffer exchange to 25 mM 3-(N-morpholino)-2-hydroxypropanesulfonic acid (MOPSO, pH 7.2, 10% [v/v] glycerol, 1 mM DTT, 5 mM MgCl2) was conducted on PD-10 Desalting Columns (GE Healthcare Life Sciences, Pittsburgh, PA).
(§1) IDS Activity Assay and Analysis. […] Upon incubation at 30° C. for 2 h, IDS enzyme products were analyzed on an Agilent 1260 HPLC system (Agilent Technologies) coupled to an API 5000 triple-quadrupole mass spectrometer (AB Sciex Instruments) following the protocol described by Beran et al. 2016.

NvIDS1 (NvTPS) = NvIDS1 (NvTPS) (Nezara viridula, UniProt A0A386JV86); settings: IPP and DMAPP as substrates
Protocol: Full-length NvTPS (NvIDS1) cDNA was cloned into the pEXP5-NT/TOPO (Invitrogen) expression vector as described above and transformed into E. coli BL21(DE3)pLysS cells. Single colonies were selected at 18° C. on LB with ampicillin (100 μg/ml) and chloramphenicol (34 μg/ml). Expression cultures (200 ml of the same medium) were started from 5 ml overnight cultures and incubated at 18° C. for 4-8h. Following induction at an OD600 of 0.50 with 0.5 mM IPTG, cells were cultivated for another 48 h, then washed in 100 ml wash buffer (20 mM Tris-HCl, 50 mM KCl, pH 7), pelleted, and resuspended in 15 ml cell lysis buffer (50 mM NaH2PO4, 300 mM NaCl, 5 mM imidazole, 0.5 mM PMSF, 2 mM DTT, pH 8). Upon sonication for 2×30 s (on ice, 1 min interval, 20% amplitude, Branson Digital Sonifier), the recombinant protein was purified with Ni-NTA agarose (Qiagen) using three washes of 30 mM imidazole and elution as a 1 ml fraction with 250 mM imidazole. Buffer exchange into TPS assay buffer (25 mM HEPES, 10 mMMgCl2,10% glycerol, pH 7) was performed on PD MiniTrap G-25 desalting columns (GE Healthcare Life Sciences).
as §1

Compound: CC(C)=CCC/C(C)=C/CC/C(C)=C/COP(=O)(O)OP(=O)(O)O [(E,E)-FPP, (E,E)-farnesyl diphosphate]
- enzymatic products of NvIDS1 (TPS activity) [1]: (Z)-α-bisabolene as the main product
- TPS activity in crude protein extract, products by GC-MS ([2]; extracts from mature females): only little activity
- TPS activity in crude protein extract, products by GC-MS ([2]; extracts from mature males): formation of (Z)-α-bisabolene
- products in crude protein extract from whole bugs, GC-MS [3]: (Z)-α-bisabolene present in crude protein from males but not females
- Vmax (NvTPS): 11.83±2.14 pkat/mg
- Km (NvTPS; 30° C., 5 min, triplicate, read-out: apparent Km value): 950 ± 370 nM

Compound: CC(C)=CCC/C(C)=C/CC/C(C)=C\COP(=O)(O)OP(=O)(O)O [(Z,E)-FPP]
- enzymatic products of NvIDS1 (TPS activity) [1]: No enzymatic products were detected

Compound: CC(C)=CCC/C(C)=C\CC/C(C)=C\COP(=O)(O)OP(=O)(O)O [(Z,Z)-FPP]
- enzymatic products of NvIDS1 (TPS activity) [1]: No enzymatic products were detected

- IDS product of NvIDS2 [4]: (E,E)-FPP as the sole product
- IDS activity of NvIDS1 (NvIDS1 (NvTPS)): no activity was observed
Compound: isopentenyl diphosphate [IPP]
